# Molecular target: T1, NO synthase (Rattus norvegicus, UniProt P29476)
# T1 construct: the supernatant was then removed by decantation and frozen in portions at −80° C; from tissue; host or cells: rat cerebellum, 20,000 g supernatant of homogenate
# Test: HTS-NOS assay (NOS assay): conversion of radioactive arginine, cation-exchanger filter plate
# Type: biochemical
# Conditions: for inhibition at 10 µM: read-out: HTS-NOS assay: % inhibition (10 μM)
# Experimental: This assay enables the percentage inhibition of NO synthase by an active ingredient to be determined by measuring the NOS activity under the action of the active ingredient. NO synthase is mixed together with radioactively labelled arginine and the active ingredient under suitable conditions. After terminating the NO-forming reaction at a given time, the amount of unconverted arginine is determined directly or indirectly. A comparison of that amount with the amount of arginine that remains in a mixture of NOS and arginine without the addition of active ingredient and under otherwise identical conditions gives the % inhibition of NO synthase by the tested active ingredient. This assay can be carried out as follows:
# (a) incubation of NO synthase with labelled arginine as substrate in a reaction vessel,
# (b) separation of the labelled arginine from the labelled citrulline optionally formed as a product of the enzymatic reaction, at a time at which the citrulline concentration is increasing,
# (c) measurement of the amount of arginine remaining in each case.
# Separation is carried out over a filter plate membrane.
# This NOS assay is suitable especially for “high throughput screening” (HTS) on microtitre plates (MTP).
# In this HTS-NOS assay, radioactive arginine is used as substrate. The assay volume can be chosen in the range from 25 μl to 250 μl, according to the type of microtitre plate (MTP). Depending on the source of the enzyme used, co-factors and co-enzymes are added. Incubation of the batches on this microtitre plate (assay MTP) according to step (a) is carried out at room temperature and is for 5 to 60 minutes according to the enzyme activity used (units). At the end of the incubation (step (a)), the plate is placed into a cell harvester which is equipped with a MTP having a cation-exchanger membrane as the filter base (filter MTP). All batches of the assay MTP are transferred to the filter MTP and filtered off with suction over a cation-exchanger filter plate, a paper filter charged with phosphate groups. The filter MTP is then washed with buffer or water. By means of this procedure, the arginine substrate that remains is bound to the cation exchanger, while the enzymatically formed radioactive citrulline is washed out quantitatively. After drying the filter MTP and adding scintillation liquid, the bound arginine can be counted using a scintillation counter. An uninhibited NOS reaction is reflected in low radioactivity. An inhibited enzyme reaction means that the radioactive arginine has not been converted. This means that a high level of radioactivity is found on the filter.
# Rat cerebella were used as the starting tissue. The animals were anaesthetized and sacrificed, the brain tissue, the cerebellum, was removed by dissection, 1 ml of enzyme preparation buffer was added per rat cerebellum (4° C.), and disintegration was carried out using a Polytron homogeniser for 1 minute at 6000 rpm, followed by centrifugation for 15 minutes at 4° C. and 20,000 g; the supernatant was then removed by decantation and frozen in portions at −80° C. (the precipitate was discarded).
# 96-well MTP having a well capacity of <250 μl were used.
# Pipetting sequence: see Table 1.
# When the pipetting operation was complete, a cover was placed on the MTP (assay MTP), and incubation was at 25° C. (room temperature (RT)) for from 5 to 60 minutes, according to the amount and activity of the enzyme used.
# The contents of the assay MTP were then transferred with the aid of a 96-well cell harvester to a 96-well cation exchanger MTP (filter MTP) and filtered off with suction. This was followed by washing once with […] of H2O (from a bath).
# The plate was then dried for 1 hour at 60° C. in a drying cabinet. The underside of the filter MTP was then accurately sealed from beneath with a “back seal”. 35 μl of scintillation fluid per well were then added by means of a pipette. The upper side of the plate was also sealed with a “top seal”. […]
Compound,inhibition at 10 µM [%],HTS-NOS assay: % inhibition (10 μM) [%]
"Cc1ccn2c(NC(C)(C)C)c(-c3ccc(C4OCCO4)o3)nc2c1 [Example 65, Tert-butyl-[2-(5-[1,3]dioxolan-2-yl-furan-2-yl)-7-methyl-imidazo[1,2-a]pyridin-3-yl]-amine]",62,–
"Cc1cc(C)n2c(NC(C)(C)CC(C)(C)C)c(-c3cc4ccccc4o3)nc2c1 [Example 66, (2-Benzofuran-2-yl-5,7-dimethyl-imidazo[1,2-a]pyridin-3-yl)-(1,1,3,3-tetramethyl-butyl)-amine]",53,–
"Cc1cc(C)n2c(NC(C)(C)C)c(-c3ccc(C(=O)O)o3)nc2c1 [Example 67, 5-(3-Tert-butylamino-5,7-dimethyl-imidazo[1,2-a]pyridin-2-yl)-furan-2-carboxylic acid]",56,–
"Cc1ccn2c(NC(C)(C)C)c(-c3ccco3)nc2c1 [Example 68, Tert-butyl-(2-furan-2-yl-7-methyl-imidazo[1,2-a]pyridin-3-yl)-amine]",57,–
"Cc1ccn2c(NC3CCCCC3)c(C)nc2c1 [Example 69, Cyclohexyl-(2,7-dimethyl-imidazo[1,2-a]-pyridin-3-yl)-amine]",55,–
"Cc1cccn2c(NC(C)(C)CC(C)(C)C)c(-c3cccc(Cl)c3Cl)nc12 [Example 70, [2-(2,3-Dichlorophenyl)-8-methyl-imidazo[1,2-a]pyridin-3-yl]-(1,1,3,3-tetramethyl-butyl)-amine]",52,–
"Cc1ccc(-c2nc3cc(C)ccn3c2NC(C)(C)CC(C)(C)C)cc1 [Example 71, (7-Methyl-2-p-tolyl-imidazo[1,2-a]pyridin-3-yl)-(1,1,3,3-tetramethyl-butyl)-amine]",58,–
"COc1ccccc1-c1nc2cc(C)ccn2c1Nc1c(C)cccc1C [Example 72, (2,6-Dimethyl-phenyl)-[2-(2-methoxy-phenyl)-7-methyl-imidazo[1,2-a]pyridin-3-yl]-amine]",53,–
"CCCCNc1c(-c2cccc(O)c2)nc2cc(C)cc(C)n12 [Example 73, 3-(3-Butylamino-5,7-dimethyl-imidazo[1,2-a]pyridin-2-yl)-phenol]",61,–
"CCCCNc1c(-c2cccc(OC)c2OC)nc2cc(C)ccn12 [Example 74, Butyl-[2-(2,3-dimethoxy-phenyl)-7-methyl-imidazo[1,2-a]pyridin-3-yl]-amine]",62,–
"C#[N+]CCCCCCNc1c(-c2ccccc2C(F)(F)F)nc2cc(C)cc(C)n12 [Example 75, {6-[5,7-Dimethyl-2-(2-trifluorO-methyl-phenyl)-imidazo[1,2-a]pyridin-3-ylamino]-hexyl}-methylidyne-ammonium]",–,56
"Cc1ccn2c(NC(C)(C)C)c(-c3ccccn3)nc2c1 [Example 76, Tert-butyl-(7-methyl-2-pyridin-2-yl-imidazo[1,2-a]pyridin-3-yl)-amine]",67,–
"Cc1cc(C)n2c(NC3CCCCC3)c(C3CCCCC3)nc2c1 [Example 77, Cyclohexyl-(2-cyclohexyl-5,7-dimethyl-imidazo[1,2-a]pyridin-3-yl)-amine]",63,–
"Cc1cc(C)n2c(Nc3c(C)cccc3C)c(-c3cccc(Cl)c3Cl)nc2c1 [Example 78, [2-(2,3-Dichlorophenyl)-5,7-dimethyl-imidazo[1,2-a]pyridin-3-yl]-(2,6-dimethyl-phenyl)-amine]",61,–
"COc1ccccc1-c1nc2cc(C)cc(C)n2c1Nc1c(C)cccc1C [Example 79, (2,6-Dimethyl-phenyl)-[2-(2-methoxy-phenyl)-5,7-dimethyl-imidazo[1,2-a]pyridin-3-yl]-amine]",66,–
"Cc1ccn2c(NC(C)(C)CC(C)(C)C)c(-c3ccc(-c4ccccc4Cl)o3)nc2c1 [Example 80, {2-[5-(2-Chlorophenyl)-furan-2-yl]-7-methyl-imidazo[1,2-a]pyridin-3-yl}-(1,1,3,3-tetramethyl-butyl)-amine]",52,–
